We go through 1 compound from publication PMC4738305, “Metabolism and Disposition of Aditoprim in Swine, Broilers, Carp and Rats” (Scientific Reports, 2016).

Where two headings read alike, the source gives them in different places.

Data set [1] in a line: Metabolite profiling of ADP in excreta, plasma and bile (LC-v.ARC/MS-IT-TOF). The data set is classed as in vivo, swine. As to conditions: for percentage of the individual metabolite compared with the total concentration of ADP-related: within 6 h after dosing; for Average percentage of ADP and its metabolites in total dose: Swine, single oral 5 mg/kg b.w. ^3H-ADP. The procedure:
(§1) Animals (4 swine, 6 broilers, 6 carp, and 3 male and 3 female rats) were housed individually in clean, suspended wire-mesh metabolism cages, designed to separate the urine from the feces (carp were raised in individual aquaria). Each animal was weighed and assigned with a permanent identification number. A single dose of ^3 H-ADP (5 mg/kg b. w., 0.1 Ci/g) was administered via the oral gavage. Excreta were collected on ice at the pre-administration, in the period of 6, 12, and 24 h on day 1 d, and afterwards, intermittently in the period of 24 h up to 14 d. The piscine excreta were collected by changing and collecting raised water. The total volume or weight of each sample was measured and homogenized. The total radioactivity levels were determined through LSC for the recovery calculations. After the preparation, the samples were analyzed through LC/MS-IT-TOF with v. ARC radiometric detection (XenoBioticLaboratories, Inc.) for metabolite profiling. The pretreatment samples were used as controls to determine the background radioactivity or the endogenous nondrug-related ions observed within respective matrices or their extracts.
(§2) A total of 36 animals from each species (swine n = 24) were randomly assigned to six equal treatment groups and administered a single daily dose of ^3 H-ADP at 5 mg/kg b. w. (0.1 Ci/g) through oral gavage for 7 consecutive days. All the animals were housed on the basis of their group in the cages or aquaria throughout the whole study period. A group of animals was slaughtered through exsanguination under diethyl ether inhalation of anesthesia in the period of 6 h, 1, 3, 7, 14, and 21 d after the administration. The blood samples were immediately collected into the heparinized tubes and was centrifuged at 1920 × g at 4 °C for 10 min to obtain the plasma. The tissues from the heart, liver, spleen, lung, kidney, craw (broilers), stomach, intestine, fat, skin, muscle, thymus, pancreas, bile, bladder, hair (scale for carp), genital gland, adrenal glands, swim bladder (carp), brain, lymph, and bursa (broilers) were carefully excised and collected. The tissues were thoroughly rinsed with the deionized water to remove the residuary blood, blotted to dryness, and finally to perform the homogenization. In order to avoid cross-contamination the dissecting instruments were washed during the tissue procurements. The blank tissues were collected in order to provide control matrices. The total radioactivity levels in each sample were determined through LSC. The samples extracted from the plasma, bile, and tissues of the liver, kidney, muscle, and fat/skin were analyzed through LC/MS-IT-TOF and v. ARC radiometric detection for metabolite profiling. The blank samples were used as control to determine the background radioactivity or the endogenous nondrug-related ions observed within respective matrices or their extracts.
(§3) For metabolite profiling, the urine and feces samples from each animals were pooled proportionally to the excreted amount in each sampling period from 0 to 6 h, 6 h to 1 d, 1 to 3 d, 3 to 7 d, and 7 to 14 d post-dose, respectively. All samples were fully homogenized before the process. The pre-dose and blank samples served as the controls for determining the background radioactivity or the endogenous, nondrug-related ions observed within respective matrices or their extracts.
(§4) The urine samples (plasma, bile and raised water for carp) was subjected to solid-phase extraction with an Oasis MCX cartridge (3 mL, […]; Waters, Milford, MA, USA) for metabolite purification and enrichment. The pH value was adjusted to 2.8–3.2 by adding 1 M hydrochloric acid (HCl), and 2 mL of the sample was transferred into MCX cartridge, which was preconditioned with 3 mL of methanol and 3 mL of 0.1 mol/L HCl solution. The cartridge was washed with 3 mL of 0.1 mol/L HCl solution and was eluted with 5 mL of NH4OH/methanol (4:96, v:v). The effluent was concentrated to dryness under a stream of nitrogen at 40 °C. […]

Experiment in data set [2]: as above
The class given is in vivo, broilers. As to conditions: for percentage of the individual metabolite compared with the total concentration of ADP-related: within 6 h after dosing. The procedure:
as §1, §2, §3, §4

Experiment in data set [3]: as above
The data set is classed as in vivo, rats. Conditions: for Average percentage of ADP and its metabolites in total dose: Rat, single oral 5 mg/kg b.w. ^3H-ADP; for percentage of the individual metabolite compared with the total concentration of ADP-related: within 6 h after dosing. The procedure:
as §1, §2, §3, §4

Data set [4] can be described thus: Concentration and elimination of ADP and its metabolites in liver, kidney, muscle, fat/skin after oral ^3H-ADP for 7 d. The data set is classed as in vivo, rats. Conditions: for half-life: po, after 5 mg/kg b. w. for 7 days, read-out: t1/2 of the individual compound (converted); for concentration at 0.25 d / concentration at 1 d / concentration at 3 d: rat, oral. The procedure:
as §2
The feces and tissues (2 g) were diluted with a mixture of methanol and chloroform (1:3, v:v; 2 mL/g homogenate). This procedure was carried out in a fume hood for the safety aspects. The pH value was adjusted to 9.0 with NH4OH. The mixture was vortexed and sonicated for 5 min and 10 min, respectively, and finally the samples were centrifuged at 7690 × g for 10 min. The supernatant was aspirated and then transferred into a new centrifuge tube. The obtained pellet was again subjected to the same process of vortex, ultrasonication, extraction, and centrifugation. The combined supernatant was concentrated under a stream of nitrogen in a water bath at 40 °C. The residue was reconstituted with 0.3 mL of methanol–water (1:9, v:v) before the injection into the LC-v. ARC/MS-IT-TOF system for analysis.
ADP and its metabolites in the prepared samples were determined with a v. ARC radiometric detector and a hybrid IT/TOF mass spectrometer connected to the HPLC system (Shimadzu Corp., Kyoto, Japan). The LC system was equipped with a solvent delivery pump (LC-20AD), an auto-sampler (SIL-20AC), a degasser (DGU-20 A 3), a photodiode array detector (SPD-M20A), a communication base module (CBM-20 A), and a column oven (CTO-20AC). The chromatographic separation was achieved by using an Agilent extend-C18 column (2.1 mm × 150 mm, 5 μm) with a gradient mobile phase of A (0.01% ammonia and 5 mM ammonium acetate in water) and B (methanol) at a flow rate of 0.2 mL/min. The column temperature was maintained at 35 °C. Various HPLC methods were performed because of the large number of different metabolites to be analyzed. For the porcine sample, method 1 started at 5% B and increased to 20% B over 35 min, then to 55% B by 60 min, followed by re-equilibration for another 10 min. For the remaining samples, method 2 started at 10% B and increased to 60% B over 30 min, subsequently was maintained at 60% B for an additional 10 min, and then changed to 90% B over 2 min and maintained for 2 min. Afterwards, a re-equilibration step (decreased to 10% B over 1 min and maintained at 10% B for additional 9 min) was followed. For each matrix, more than 98% of the radioactivity injected into the column was eluted during the running time of the gradient program. […]

As to `COc1cc(Cc2cnc(N)nc2N)cc(OC)c1N` [A2, N-didesmethyl-ADP], the “percentage of the individual metabolite compared with the total concentration of ADP-related” value in data set [1] (Swine Feces) was determined as 1.1%; in data set [1] (Swine Plasma), 15.0%; in data set [1] (Swine Urine), 11.8%; in data set [2] (Broilers Extra (excreta)), 6.5%; in data set [2] (Broilers Plasma), 12.6%; in data set [3] (Rats Feces), 0.3%. The “percentage of the individual metabolite compared with the total concentration of ADP-related” value in data set [3] (Rats Plasma) is 6.0%; in data set [3] (Rats Urine), 2.6%. For the same compound, the “Average percentage of ADP and its metabolites in total dose” value in data set [1] (Feces) was 0.5%; in data set [1] (Urine), 11.3%; in data set [2] (Broilers, Excreta, single oral 5 mg/kg b.w. ^3H-ADP) it was 4.8%; in data set [3] (Feces), 0.7%; in data set [3] (Urine), 1.1%. The half-life in data set [4] (rat kidney) was 16.8 h; in data set [4] (rat liver), 38.6 h. Moreover, the concentration at 0.25 d in data set [4] (kidney, 5 mg/kg b.w.) is 370 ± 130 ng/g; in data set [4] (liver, 5 mg/kg b. w.), 230 ± 60 ng/g; in data set [4] (muscle, 5 mg/kg b.w.), 40 ± 10 ng/g. In addition, the concentration at 1 d in data set [4] (kidney, 5 mg/kg b.w.) came out at 120 ± 30 ng/g; in data set [4] (liver, 5 mg/kg b. w.), 120 ± 20 ng/g. The concentration at 3 d in data set [4] (kidney, 5 mg/kg b.w.) was 20 ng/g; in data set [4] (liver, 5 mg/kg b. w.), 60 ± 20 ng/g.
